From ChEMBL document CHEMBL3885881, “DrugMatrix”

Species on record: Rattus norvegicus
Test: DrugMatrix - Regimen: Daily Repeat
Assay type: toxicity, organism-based, Sprague-Dawley
Parameters: regimen Daily Repeat, gender Male, age 6-8 weeks
Conditions: in vivo, po, route oral GAVAGE, vehicle 100 % SALINE; for ABSOLUTE BASOPHIL / ABSOLUTE EOSINOPHIL / ABSOLUTE LYMPHOCYTE / ABSOLUTE MONOCYTE / ABSOLUTE SEGMENTED NEUTROPHIL / BASOPHIL / EOSINOPHIL / ERYTHROCYTE COUNT / HEMATOCRIT / HEMOGLOBIN / LEUKOCYTE COUNT / MEAN CORPUSCULAR HEMOGLOBIN / MEAN CORPUSCULAR HEMOGLOBIN CONCENTRATION / MEAN CORPUSCULAR VOLUME / MONOCYTE / NEUTROPHIL / NUCLEATED RED BLOOD CELLS / PLATELET COUNT: tissue Blood; for ALANINE AMINOTRANSFERASE / ALBUMIN / ALKALINE PHOSPHATASE / ASPARTATE AMINOTRANSFERASE / BLOOD UREA NITROGEN / CARBON DIOXIDE / CHLORIDE / CHOLESTEROL / CREATINE PHOSPHOKINASE / CREATININE / GLUCOSE / LACTATE DEHYDROGENASE / LIPASE / PHOSPHORUS / POTASSIUM / SODIUM / TOTAL BILIRUBIN / TOTAL PROTEIN / URIC ACID: tissue Plasma
[1] = 0 mg/kg, 72 h, dose level Control, time 3 day
[2] = 0 mg/kg, 120 h, dose level Control, time 5 day
[3] = 40 mg/kg, 72 h, dose level Low, time 3 day

With Oc1ccccc1O [CATECHOL] the “ABSOLUTE BASOPHIL” value [1] was 0 CELLS/uL, the “ABSOLUTE EOSINOPHIL” value [1] was 65.67 CELLS/uL and the “ABSOLUTE LYMPHOCYTE” value [1] was 17283.5 CELLS/uL. The “ABSOLUTE MONOCYTE” value [1] was 0 CELLS/uL, the “ABSOLUTE SEGMENTED NEUTROPHIL” value [1] was 1284.17 CELLS/uL and the BASOPHIL [1] was 0%. For the same molecule, the EOSINOPHIL [1] was 0.33%, the “ERYTHROCYTE COUNT” value [1] was 5.46 x10E6/uL and the HEMATOCRIT [1] was 34.28%. For the same molecule, the HEMOGLOBIN [1] was 13.78 G/DL, the “LEUKOCYTE COUNT” value [1] was 18.63 x10E3/uL and the “MEAN CORPUSCULAR HEMOGLOBIN” value [1] was 25.3 pg. For the same molecule, the “MEAN CORPUSCULAR HEMOGLOBIN CONCENTRATION” value [1] was 40.22 G/DL, the “MEAN CORPUSCULAR VOLUME” value [1] was 62.87 fL and the MONOCYTE [1] was 0%. For the same molecule, the NEUTROPHIL [1] was 7%, the “NUCLEATED RED BLOOD CELLS” value [1] was 0 /100WBC and the “PLATELET COUNT” value [1] was 1244.83 x10E3/uL. The “ALANINE AMINOTRANSFERASE” value [1] was 52.83 u/L, the ALBUMIN [1] was 4 G/DL and the “ALKALINE PHOSPHATASE” value [1] was 327.67 u/L. For the same molecule, the “ASPARTATE AMINOTRANSFERASE” value [1] was 78.83 u/L, the “BLOOD UREA NITROGEN” value [1] was 13.83 mg/dL and the “CARBON DIOXIDE” value [1] was 26.67 mmol/L. The CHLORIDE [1] was 99.67 MEQ/L, the CHOLESTEROL [1] was 69 mg/dL and the “CREATINE PHOSPHOKINASE” value [1] was 350.17 u/L. The CREATININE [1] was 0.21 mg/dL, the GLUCOSE [1] was 173.83 mg/dL and the “LACTATE DEHYDROGENASE” value [1] was 168.33 u/L. For the same molecule, the LIPASE [1] was 11 u/L, the PHOSPHORUS [1] was 12.7 mg/dL and the POTASSIUM [1] was 6.88 MEQ/L. The SODIUM [1] was 141.68 MEQ/L, the “TOTAL BILIRUBIN” value [1] was 0.22 mg/dL and the “TOTAL PROTEIN” value [1] was 6.02 G/DL. The “URIC ACID” value [1] was 1.9 mg/dL, the “ABSOLUTE BASOPHIL” value [2] was 0 CELLS/uL and the “ABSOLUTE EOSINOPHIL” value [2] was 14.83 CELLS/uL. For the same molecule, the “ABSOLUTE LYMPHOCYTE” value [2] was 12880 CELLS/uL, the “ABSOLUTE MONOCYTE” value [2] was 90.67 CELLS/uL and the “ABSOLUTE SEGMENTED NEUTROPHIL” value [2] was 864.5 CELLS/uL. For the same molecule, the BASOPHIL [2] was 0%, the EOSINOPHIL [2] was 0.17% and the “ERYTHROCYTE COUNT” value [2] was 5.83 x10E6/uL. The HEMATOCRIT [2] was 35.87%, the HEMOGLOBIN [2] was 14 G/DL and the “LEUKOCYTE COUNT” value [2] was 13.85 x10E3/uL. For the same molecule, the “MEAN CORPUSCULAR HEMOGLOBIN” value [2] was 24.03 pg, the “MEAN CORPUSCULAR HEMOGLOBIN CONCENTRATION” value [2] was 39.03 G/DL and the “MEAN CORPUSCULAR VOLUME” value [2] was 61.53 fL. The MONOCYTE [2] was 0.67%, the NEUTROPHIL [2] was 6.67% and the “NUCLEATED RED BLOOD CELLS” value [2] was 0 /100WBC. The “PLATELET COUNT” value [2] was 1041.83 x10E3/uL, the “ALANINE AMINOTRANSFERASE” value [2] was 56 u/L and the ALBUMIN [2] was 4.47 G/DL. The “ALKALINE PHOSPHATASE” value [2] was 319 u/L, the “ASPARTATE AMINOTRANSFERASE” value [2] was 89.17 u/L and the “BLOOD UREA NITROGEN” value [2] was 15.2 mg/dL. The “CARBON DIOXIDE” value [2] was 24 mmol/L, the CHLORIDE [2] was 104.4 MEQ/L and the CHOLESTEROL [2] was 69.5 mg/dL. The “CREATINE PHOSPHOKINASE” value [2] was 295.83 u/L, the CREATININE [2] was 0.21 mg/dL and the GLUCOSE [2] was 124.33 mg/dL. For the same molecule, the “LACTATE DEHYDROGENASE” value [2] was 325.5 u/L, the LIPASE [2] was 14.67 u/L and the PHOSPHORUS [2] was 11.45 mg/dL. For the same molecule, the POTASSIUM [2] was 6.74 MEQ/L, the SODIUM [2] was 151.4 MEQ/L and the “TOTAL BILIRUBIN” value [2] was 0.23 mg/dL. The “TOTAL PROTEIN” value [2] was 6.45 G/DL, the “URIC ACID” value [2] was 1.18 mg/dL and the “ABSOLUTE BASOPHIL” value [3] was 0 CELLS/uL. For the same molecule, the “ABSOLUTE EOSINOPHIL” value [3] was 0 CELLS/uL, the “ABSOLUTE LYMPHOCYTE” value [3] was 14994 CELLS/uL and the “ABSOLUTE MONOCYTE” value [3] was 0 CELLS/uL. For the same molecule, the “ABSOLUTE SEGMENTED NEUTROPHIL” value [3] was 739.33 CELLS/uL, the BASOPHIL [3] was 0% and the EOSINOPHIL [3] was 0%. For the same molecule, the “ERYTHROCYTE COUNT” value [3] was 5.48 x10E6/uL, the HEMATOCRIT [3] was 33.5% and the HEMOGLOBIN [3] was 13.33 G/DL. For the same molecule, the “LEUKOCYTE COUNT” value [3] was 15.73 x10E3/uL, the “MEAN CORPUSCULAR HEMOGLOBIN” value [3] was 24.37 pg and the “MEAN CORPUSCULAR HEMOGLOBIN CONCENTRATION” value [3] was 39.87 G/DL. The “MEAN CORPUSCULAR VOLUME” value [3] was 61.1 fL, the MONOCYTE [3] was 0% and the NEUTROPHIL [3] was 4.67%. The “NUCLEATED RED BLOOD CELLS” value [3] was 0 /100WBC, the “PLATELET COUNT” value [3] was 1095.33 x10E3/uL and the “ALANINE AMINOTRANSFERASE” value [3] was 43.67 u/L. The ALBUMIN [3] was 4.2 G/DL, the “ALKALINE PHOSPHATASE” value [3] was 287 u/L and the “ASPARTATE AMINOTRANSFERASE” value [3] was 70.67 u/L. For the same molecule, the “BLOOD UREA NITROGEN” value [3] was 13.33 mg/dL, the “CARBON DIOXIDE” value [3] was 23.67 mmol/L and the CHLORIDE [3] was 101 MEQ/L. The CHOLESTEROL [3] was 74 mg/dL, the “CREATINE PHOSPHOKINASE” value [3] was 350.33 u/L and the CREATININE [3] was 0.22 mg/dL. For the same molecule, the GLUCOSE [3] was 176.67 mg/dL, the “LACTATE DEHYDROGENASE” value [3] was 113.33 u/L and the LIPASE [3] was 10.33 u/L. It also gave a PHOSPHORUS [3] of 11.93 mg/dL, a POTASSIUM [3] of 6.1 MEQ/L and an SODIUM [3] of 140.57 MEQ/L. The “TOTAL BILIRUBIN” value [3] was 0.17 mg/dL, the “TOTAL PROTEIN” value [3] was 6.13 G/DL and the “URIC ACID” value [3] was 2 mg/dL.
